Test results from ChEMBL document CHEMBL1132080, “Investigation of the S3 site of thrombin: design, synthesis and biological activity of 4-substituted 3-amino-2-pyridones incorporating P1-argininals” (Bioorg Med Chem Lett, 1999).

Experiments:
Serine protease 1 = Serine protease 1 (Homo sapiens, UniProt P07477); assay: Concentration required for the in vitro inhibitory activity against human enzyme, trypsin cleavage of the chromogenic substrate
Plasminogen = Plasminogen (Homo sapiens, UniProt P00747); assay: Concentration required for the in vitro inhibitory activity against human enzyme, Plasmin cleavage of the chromogenic substrate
Prothrombin = Prothrombin (Homo sapiens, UniProt P00734); assay: Concentration required for the in vitro inhibitory activity against human enzyme, thrombin cleavage of the chromogenic substrate
Coagulation factor X = Coagulation factor X (Homo sapiens, UniProt P00742); assay: Concentration required for the in vitro inhibitory activity against human enzyme, Factor Xa cleavage of the chromogenic substrate
Sequence of Coagulation factor X (P00742 41-179 limits assumed): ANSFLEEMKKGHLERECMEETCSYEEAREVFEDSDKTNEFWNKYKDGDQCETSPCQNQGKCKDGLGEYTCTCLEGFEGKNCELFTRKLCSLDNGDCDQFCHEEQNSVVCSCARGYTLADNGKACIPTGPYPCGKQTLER
Sequence of Coagulation factor X (P00742 235-488 limits assumed): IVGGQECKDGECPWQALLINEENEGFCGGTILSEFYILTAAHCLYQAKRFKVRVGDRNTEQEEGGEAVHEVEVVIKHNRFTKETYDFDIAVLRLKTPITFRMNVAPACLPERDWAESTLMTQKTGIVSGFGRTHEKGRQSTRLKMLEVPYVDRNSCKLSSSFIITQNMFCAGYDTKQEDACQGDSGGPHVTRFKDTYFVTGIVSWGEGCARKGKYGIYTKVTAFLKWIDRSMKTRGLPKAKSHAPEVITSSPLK

Sequence of Plasminogen (P00747 97-580 limits assumed): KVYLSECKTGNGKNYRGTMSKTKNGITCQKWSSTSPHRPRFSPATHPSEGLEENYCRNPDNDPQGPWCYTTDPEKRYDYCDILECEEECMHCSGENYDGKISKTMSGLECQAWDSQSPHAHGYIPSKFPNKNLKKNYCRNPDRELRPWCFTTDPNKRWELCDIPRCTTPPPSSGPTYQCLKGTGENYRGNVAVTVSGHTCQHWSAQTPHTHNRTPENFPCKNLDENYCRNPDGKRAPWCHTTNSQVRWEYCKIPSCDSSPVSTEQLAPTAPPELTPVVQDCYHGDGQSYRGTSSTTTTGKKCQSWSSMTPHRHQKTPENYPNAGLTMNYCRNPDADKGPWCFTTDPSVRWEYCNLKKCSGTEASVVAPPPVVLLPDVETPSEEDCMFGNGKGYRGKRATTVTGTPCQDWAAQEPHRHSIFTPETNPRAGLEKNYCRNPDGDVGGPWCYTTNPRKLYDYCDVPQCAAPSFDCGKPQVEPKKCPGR
Sequence of Plasminogen (P00747 581-810 limits assumed): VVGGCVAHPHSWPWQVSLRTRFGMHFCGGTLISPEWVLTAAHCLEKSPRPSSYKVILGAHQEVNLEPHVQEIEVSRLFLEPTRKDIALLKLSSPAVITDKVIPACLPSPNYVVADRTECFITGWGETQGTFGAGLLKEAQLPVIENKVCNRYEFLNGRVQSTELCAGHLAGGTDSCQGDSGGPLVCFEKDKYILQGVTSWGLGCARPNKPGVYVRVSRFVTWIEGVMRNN
Sequence of Serine protease 1 (P07477 whole entry): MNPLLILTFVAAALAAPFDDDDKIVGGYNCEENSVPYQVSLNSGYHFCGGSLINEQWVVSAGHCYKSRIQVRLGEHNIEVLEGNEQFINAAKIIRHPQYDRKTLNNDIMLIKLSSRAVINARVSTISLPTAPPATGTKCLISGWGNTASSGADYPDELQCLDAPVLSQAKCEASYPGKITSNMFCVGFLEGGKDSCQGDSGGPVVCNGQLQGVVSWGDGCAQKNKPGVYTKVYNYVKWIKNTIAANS

Compound | IC50 (Serine protease 1) [nM] | IC50 (Plasminogen) [nM] | IC50 (Prothrombin) [nM] | IC50 (Coagulation factor X) [nM]
N=C(N)N1CCC[C@H](NC(=O)CN2CCCC(NS(=O)(=O)Cc3ccccc3)C2=O)C1O (some centres not stated) | 791 | > 2500 | 6.2 | 2500
CS(=O)(=O)Nc1c(CCCc2ccccc2)ccn(CC(=O)N[C@H]2CCCN(C(=N)N)C2O)c1=O (some centres not stated) | 479 | > 2500 | 203 | > 2500
CNS(=O)(=O)Nc1c(CCc2ccccc2)ccn(CC(=O)N[C@H]2CCCN(C(=N)N)C2O)c1=O (some centres not stated) | 103 | 250 | 50.5 | 2500
CS(=O)(=O)Nc1c(CCC2CCCCC2)ccn(CC(=O)N[C@H]2CCCN(C(=N)N)C2O)c1=O (some centres not stated) | 257 | > 2500 | 256 | 2500
N=C(N)N1CCC[C@H](NC(=O)Cn2ccc(CCc3ccccc3)c(NS(=O)(=O)CC(F)(F)F)c2=O)C1O (some centres not stated) | 1220 | > 2500 | 194 | > 2500
CS(=O)(=O)Nc1c(CCc2ccccc2)ccn(CC(=O)N[C@H]2CCCN(C(=N)N)C2O)c1=O (some centres not stated) | 135 | > 2500 | 7.95 | > 2500
CC(=O)Nc1c(CCc2ccccc2)ccn(CC(=O)N[C@H]2CCCN(C(=N)N)C2O)c1=O (some centres not stated) | 1220 | > 2500 | 472 | > 2500
N=C(N)N1CCC[C@H](NC(=O)Cn2ccc(CCc3ccccc3)c(NS(=O)(=O)c3ccccc3)c2=O)C1O (some centres not stated) | 188 | > 2500 | 89.1 | 2360
